# In paper PMC11429909, “Protein Structure Inspired Discovery of a Novel Inducer of Anoikis in Human Melanoma” (Cancers, 2024):
# Columns and labels:
# Assay type in all cases: cell-based, human
# M14 = test: Eight-day colony formation assay, melanoma M14
# Method: (§1) In addition to screens, eight-day colony formation assays were conducted for certain experiments, as denoted. When measuring the effect of 5-fluorouracil (5FU) on HT29 colon cancer cells, the following final 5FU concentrations were examined: 0 (DMSO only), 0.0012, 0.012, 0.12, 0.82, 5.7, 20, and 40 µM. When measuring the effect of Dxr2-017 on melanoma cell growth, the following concentrations were examined: 0 (DMSO only), 0.001, 0.01, 0.1, 1.0, and 10.0 µM. Melanoma studies were performed on M14 and SK-MEL-5 human melanoma cell lines. For each Dxr2-017 concentration for each cell line, there were N = 3 replicates, and experiments were performed a total of 3 separate times (each with N = 3 replicates). The IC50 values were calculated using nonlinear regression analysis. Data from individual experiments were log-transformed and fitted to a dose–response curve using the four-parameter logistic model of GraphPad Prism 10 software. The IC50 values were determined using the dose–response inhibition function. IC50 values from each of three different experiments were used to calculate mean ± SEM.
# SK-MEL-5 = test: Eight-day colony formation assay, melanoma SK-MEL-5
# Method: as §1
# SK-MEL-5 cells = test: Cell cycle analysis by flow cytometry, SK-MEL-5; details: 50 nM, eight days
# Method: A total of 1 × 10^4 M14 cells and 1 × 10^4 SK-MEL-5 cells were seeded into 10 cm culture dishes. Twenty-four hours later, cells were treated in replicates of N = 3, with Dxr2-017 at 20 nM for M14 and 50 nM for SK-MEL-5, or vehicle for controls for a total of eight days, with replacement of media, along with Dxr2-017 or vehicle, at day five. Cells were then collected, filtered to obtain single-cell suspensions, equal numbers of cells were fixed in 1 mL of 70% ethanol at 4 °C for 1 h, washed with PBS, and resuspended in 1 mL of Telford reagent (1 mM EDTA disodium salt, 2.5 U/mL RNAse A, 75 µM Propidium Iodide, and 0.1% Triton X-100 in PBS), and then incubated at 4 °C overnight. Cells were analyzed by flow cytometry (FACSCalibur analyzer, BD Biosciences). Cells were gated on forward scatter (FSC) versus side scatter (SCC) to remove debris, followed by gating of single cells using PI (FL2)-Area versus PI (FL2)-Width. Cell cycle analysis was performed on the PI (FL2)-Area parameter, and the percentages of cells within G0/G1, S, and G2/M phases were determined using Modfit LT 4.0.5.
# M14 cells = test: Adherent versus floating cell quantification from images, M14; details: 10 µM, 3-day treatment, mean ± SEM (N = 4), controls 16.3 ± 2.8%
# Method: After treatment of M14 and SK-MEL-5 cells with different concentrations of Dxr2-017 or vehicle for 3 or 8 days, as denoted, cell images were captured at 20X in a transmitted light channel using the EVOS™ M5000 Imaging System (Invitrogen (Waltham, MA, USA)). Western blots were performed as previously described by us. Briefly, cells were collected and lysed using RIPA lysis buffer (25 mM Tris-HCl pH 7.6, 150 mM NaCl, 1% NP-40, 1% sodium deoxycholate, and 0.1% SDS; Thermo Scientific^TM (Waltham, MA, USA), #89900), supplemented with protease and phosphatase inhibitor cocktail (Thermo Scientific^TM, #78442) and 1 mM of PMSF. […]
# Figure 8 Dxr2-017 inhibits melanoma cell growth through induction of anoikis. […] Data are expressed as the percent of untreated control and are the mean ± SEM of three separate experiments. […] M14 and SK-MEL-5 cells were treated for eight days with 20 nM and 50 nM of Dxr2-017, respectively, and the phase of the cell cycle was determined by flow cytometry. […] (D) Adherent and floating cells were quantified from captured images. Data are the mean ± SEM (N = 4), expressed as a percentage to total cells. * Denotes p-value ≤ 0.05 compared to respective floating or attached cells. […]
# We then assessed whether Dxr2-017 induced apoptosis. […]
smiles,measurement,setting,value
c1ccc2sc(-c3ccc(CNc4ccc5nnnn5n4)o3)nc2c1 [Dxr2-017],IC50,"M14; Homo sapiens, 192 h, M14 melanoma, mean ± SEM of three experiments",12 nM
same,fold efficacy relative to bone marrow stem cells treated at 40 µM,M14; M14 IC50 versus eight-day bone marrow treatment at 40 µM,over 2100 fold
same,IC50,"SK-MEL-5; Homo sapiens, 192 h, SK-MEL-5 melanoma, mean ± SEM of three experiments",51 ± 11 nM
same,fold efficacy relative to bone marrow stem cells treated at 40 µM,SK-MEL-5; SK-MEL-5 IC50 versus eight-day bone marrow treatment at 40 µM,> 750 fold
same,effect on cell cycle parameters,SK-MEL-5 cells,little-to-no change in cell cycle parameters
same,"floating cell population, percentage to total cells",M14 cells,79.9 ± 7.4%
